According to ChEMBL document CHEMBL5608182, “Synthesis and evaluation of neuroactive steroids with novel pharmacophore at C-21 let identify a compound with advantageous PK profile and higher EC50 and Emax as PAM on GABAA receptor” (Eur J Med Chem, 2024):

Legend:
[1] = Metabolic stability in Sprague-Dawley rat liver microsomes assessed as intrinsic clearance at 1 uM preincubated for 10 mins followed by NADPH addition by LC-MS analysis; assay type: ADME, Microsome; conditions: read-out: CLH
[2] = Metabolic stability in human liver microsomes assessed as intrinsic clearance at 1 uM preincubated for 10 mins followed by NADPH addition by LC-MS analysis; assay type: ADME, Microsome; conditions: read-out: CLH
[3] = Metabolic stability in Sprague-Dawley rat liver microsomes assessed as compound remaining at 1 uM preincubated for 10 mins followed by NADPH addition by LC-MS analysis; assay type: ADME, Microsome; conditions: read-out: Stability
[4] = Acid dissociation constant, pKa of the compound; assay type: physicochemical
Cytochrome P450 1A2 = biological target: T1, Cytochrome P450 1A2 (Homo sapiens, UniProt P05177); assay: Inhibition of CYP1A2 (unknown origin); assay type: ADME
T1 sequence (P05177 whole entry): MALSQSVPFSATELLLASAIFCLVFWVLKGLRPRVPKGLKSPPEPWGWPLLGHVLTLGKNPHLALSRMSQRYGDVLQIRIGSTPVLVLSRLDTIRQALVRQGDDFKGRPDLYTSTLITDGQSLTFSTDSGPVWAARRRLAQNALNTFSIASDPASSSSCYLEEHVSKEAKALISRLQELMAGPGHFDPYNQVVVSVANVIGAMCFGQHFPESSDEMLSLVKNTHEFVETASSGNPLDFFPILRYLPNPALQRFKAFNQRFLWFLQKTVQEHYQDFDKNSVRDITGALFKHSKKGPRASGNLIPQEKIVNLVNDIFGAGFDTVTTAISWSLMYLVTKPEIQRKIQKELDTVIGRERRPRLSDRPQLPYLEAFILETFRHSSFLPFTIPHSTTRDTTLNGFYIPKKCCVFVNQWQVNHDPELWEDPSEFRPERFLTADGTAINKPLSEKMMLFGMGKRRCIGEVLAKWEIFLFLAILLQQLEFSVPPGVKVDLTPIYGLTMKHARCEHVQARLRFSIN

Cytochrome P450 2B6 = biological target: T2, Cytochrome P450 2B6 (Homo sapiens, UniProt P20813); assay: Inhibition of CYP2B6 (unknown origin); assay type: ADME
T2 sequence (P20813 whole entry): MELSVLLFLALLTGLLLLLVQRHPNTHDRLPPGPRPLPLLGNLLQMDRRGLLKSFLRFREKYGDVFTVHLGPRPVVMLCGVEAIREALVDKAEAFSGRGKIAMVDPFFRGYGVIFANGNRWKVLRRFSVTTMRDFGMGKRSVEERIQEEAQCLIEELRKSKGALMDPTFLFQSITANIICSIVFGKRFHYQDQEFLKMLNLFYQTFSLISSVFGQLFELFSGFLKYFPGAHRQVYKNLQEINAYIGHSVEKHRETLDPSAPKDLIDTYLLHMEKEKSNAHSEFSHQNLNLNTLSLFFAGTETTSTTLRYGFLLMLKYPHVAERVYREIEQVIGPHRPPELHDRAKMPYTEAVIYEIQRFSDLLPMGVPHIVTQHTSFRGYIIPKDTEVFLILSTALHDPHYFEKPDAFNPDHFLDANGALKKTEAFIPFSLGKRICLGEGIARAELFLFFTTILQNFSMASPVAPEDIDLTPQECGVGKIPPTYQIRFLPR

Cytochrome P450 2C9 = Cytochrome P450 2C9 (Homo sapiens, UniProt P11712); assay: Inhibition of CYP2C9 (unknown origin); assay type: ADME
Cytochrome P450 2C9, sequence (P11712 whole entry): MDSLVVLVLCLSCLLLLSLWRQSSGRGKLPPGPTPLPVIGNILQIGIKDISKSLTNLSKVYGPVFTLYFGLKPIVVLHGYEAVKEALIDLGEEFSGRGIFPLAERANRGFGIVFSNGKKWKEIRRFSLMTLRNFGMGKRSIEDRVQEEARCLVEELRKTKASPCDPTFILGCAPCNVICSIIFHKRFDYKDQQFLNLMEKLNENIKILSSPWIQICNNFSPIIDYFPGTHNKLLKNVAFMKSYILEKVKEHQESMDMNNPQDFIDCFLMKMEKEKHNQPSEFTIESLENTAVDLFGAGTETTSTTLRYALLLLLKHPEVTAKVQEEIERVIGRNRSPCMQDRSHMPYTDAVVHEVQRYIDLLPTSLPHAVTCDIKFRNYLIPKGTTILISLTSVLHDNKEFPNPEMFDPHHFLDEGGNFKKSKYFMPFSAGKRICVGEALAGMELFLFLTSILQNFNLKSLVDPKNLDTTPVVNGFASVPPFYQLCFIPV

Cytochrome P450 2D6 = Cytochrome P450 2D6 (Homo sapiens, UniProt P10635); assay: Inhibition of CYP2D6 (unknown origin); assay type: ADME
Cytochrome P450 2D6, sequence (P10635 whole entry): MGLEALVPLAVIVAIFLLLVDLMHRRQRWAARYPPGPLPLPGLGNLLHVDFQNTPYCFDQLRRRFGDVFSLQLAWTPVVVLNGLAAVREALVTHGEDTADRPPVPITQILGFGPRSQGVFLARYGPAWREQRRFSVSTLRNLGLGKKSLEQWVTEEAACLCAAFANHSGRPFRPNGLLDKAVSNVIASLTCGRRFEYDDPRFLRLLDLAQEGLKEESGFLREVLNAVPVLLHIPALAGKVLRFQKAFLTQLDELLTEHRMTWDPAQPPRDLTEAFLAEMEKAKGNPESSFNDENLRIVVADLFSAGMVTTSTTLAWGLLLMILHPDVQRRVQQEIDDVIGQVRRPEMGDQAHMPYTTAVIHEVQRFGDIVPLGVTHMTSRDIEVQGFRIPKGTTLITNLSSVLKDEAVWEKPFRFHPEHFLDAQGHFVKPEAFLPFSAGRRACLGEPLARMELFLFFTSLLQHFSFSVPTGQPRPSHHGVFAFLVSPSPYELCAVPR

Cytochrome P450 3A4 = Cytochrome P450 3A4 (Homo sapiens, UniProt P08684); assay: Inhibition of CYP3A4 (unknown origin); assay type: ADME
Cytochrome P450 3A4, sequence (P08684 whole entry): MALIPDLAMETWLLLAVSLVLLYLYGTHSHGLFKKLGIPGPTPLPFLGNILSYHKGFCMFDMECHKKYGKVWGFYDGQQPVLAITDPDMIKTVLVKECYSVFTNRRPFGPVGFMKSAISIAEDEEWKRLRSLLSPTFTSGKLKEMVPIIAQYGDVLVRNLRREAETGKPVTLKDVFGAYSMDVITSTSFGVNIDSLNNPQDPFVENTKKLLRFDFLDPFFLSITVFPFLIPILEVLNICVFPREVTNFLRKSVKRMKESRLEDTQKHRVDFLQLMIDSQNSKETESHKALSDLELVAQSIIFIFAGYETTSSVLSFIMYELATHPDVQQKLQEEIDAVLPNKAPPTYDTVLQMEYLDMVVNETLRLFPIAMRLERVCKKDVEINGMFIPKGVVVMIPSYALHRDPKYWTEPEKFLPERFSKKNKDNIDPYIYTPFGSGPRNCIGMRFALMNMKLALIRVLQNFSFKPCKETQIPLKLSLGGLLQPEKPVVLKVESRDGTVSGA

[5] = Half life in male Sprague-Dawley rat at 6.1 micromol/kg, iv administered as single dose and measured upto 24 hrs by LC-MS/MS analysis; assay type: ADME, organism-based; conditions: in vivo, dose 6.1 µmol/kg
[6] = AUClast in male Sprague-Dawley rat at 6.1 micromol/kg, iv administered as single dose and measured upto 24 hrs by LC-MS/MS analysis; assay type: ADME, organism-based; conditions: in vivo, dose 6.1 µmol/kg
[7] = Apparent volume of distribution in male Sprague-Dawley rat at 6.1 micromol/kg, iv administered as single dose and measured upto 24 hrs by LC-MS/MS analysis; assay type: ADME, organism-based; conditions: in vivo, dose 6.1 µmol/kg, read-out: Vz
[8] = MRTlast in male Sprague-Dawley rat at 6.1 micromol/kg, iv administered as single dose and measured upto 24 hrs by LC-MS/MS analysis; assay type: ADME, organism-based; conditions: in vivo, dose 6.1 µmol/kg
[9] = Half life in male Sprague-Dawley rat at 24.4 micromol/kg, IG administered as single dose and measured upto 24 hrs by LC-MS/MS analysis; assay type: ADME; conditions: in vivo, po, dose 24.4 µmol/kg
[10] = Tmax in male Sprague-Dawley rat at 24.4 micromol/kg, IG administered as single dose and measured upto 24 hrs by LC-MS/MS analysis; assay type: ADME; conditions: in vivo, po, dose 24.4 µmol/kg
[11] = AUClast in male Sprague-Dawley rat at 24.4 micromol/kg, IG administered as single dose and measured upto 24 hrs by LC-MS/MS analysis; assay type: ADME; conditions: in vivo, po, dose 24.4 µmol/kg
[12] = Apparent volume of distribution in male Sprague-Dawley rat at 24.4 micromol/kg, IG administered as single dose and measured upto 24 hrs by LC-MS/MS analysis; assay type: ADME; conditions: in vivo, po, dose 24.4 µmol/kg
[13] = MRTlast in male Sprague-Dawley rat at 24.4 micromol/kg, IG administered as single dose and measured upto 24 hrs by LC-MS/MS analysis; assay type: ADME; conditions: in vivo, po, dose 24.4 µmol/kg
[14] = Bioavailability in male Sprague-Dawley rat at 24.4 micromol/kg, IG administered as single dose and measured upto 24 hrs by LC-MS/MS analysis; assay type: ADME, organism-based; conditions: in vivo, po, 24.4 µmol/kg
[15] = Initial drug concentration in male Sprague-Dawley rat at 6.1 micromol/kg, iv administered as single dose and measured upto 24 hrs by LC-MS/MS analysis; assay type: ADME, organism-based; conditions: in vivo, dose 6.1 µmol/kg
[16] = biological target: GABA-A receptor; alpha-1/beta-2/gamma-2 (Homo sapiens) (UniProt P14867+P47870+P18507); assay: (§1) Positive allosteric modulation of synaptic alpha1beta2gamma2 GABA-A receptor (unknown origin) transfected in LTK cells assessed as potentiation of GABA-induced peak current amplitude by measuring maximal efficacy at 0.01 to 10 uM at -80 mV holding potential preincubated for 30 secs followed by GABA stimulation for 2 secs by Q-patch assay relative to control; assay type: cell-based; conditions: filed as positive allosteric modulator, dose 0.01-10 µM, time 32.0 sec
[17] = biological target: Gamma-aminobutyric acid receptor subunit alpha-4/beta3/delta (Homo sapiens, UniProt O14764+P28472+P48169); assay: Positive allosteric modulation of extrasynaptic alpha4beta3delta GABA-A receptor (unknown origin) transfected in CHO cells assessed as potentiation of GABA-induced peak current amplitude at -80 mV holding potential preincubated for 30 secs followed by GABA stimulation for 2 secs by manual patch assay; assay type: cell-based
Gamma-aminobutyric acid receptor subunit alpha-4/beta3/delta, sequence (P28472 whole entry): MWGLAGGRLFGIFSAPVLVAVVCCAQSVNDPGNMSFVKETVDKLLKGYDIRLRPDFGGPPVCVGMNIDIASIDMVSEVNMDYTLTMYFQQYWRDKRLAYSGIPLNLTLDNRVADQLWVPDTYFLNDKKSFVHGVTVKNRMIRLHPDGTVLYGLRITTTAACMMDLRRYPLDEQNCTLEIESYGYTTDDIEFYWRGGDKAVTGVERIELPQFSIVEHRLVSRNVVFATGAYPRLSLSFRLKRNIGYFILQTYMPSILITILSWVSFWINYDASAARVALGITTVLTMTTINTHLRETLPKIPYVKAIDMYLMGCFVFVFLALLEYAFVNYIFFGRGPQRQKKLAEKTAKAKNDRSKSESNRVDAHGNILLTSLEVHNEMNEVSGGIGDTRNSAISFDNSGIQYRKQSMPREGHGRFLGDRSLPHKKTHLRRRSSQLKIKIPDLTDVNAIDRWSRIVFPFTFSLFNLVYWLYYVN
Gamma-aminobutyric acid receptor subunit alpha-4/beta3/delta, sequence (P48169 whole entry): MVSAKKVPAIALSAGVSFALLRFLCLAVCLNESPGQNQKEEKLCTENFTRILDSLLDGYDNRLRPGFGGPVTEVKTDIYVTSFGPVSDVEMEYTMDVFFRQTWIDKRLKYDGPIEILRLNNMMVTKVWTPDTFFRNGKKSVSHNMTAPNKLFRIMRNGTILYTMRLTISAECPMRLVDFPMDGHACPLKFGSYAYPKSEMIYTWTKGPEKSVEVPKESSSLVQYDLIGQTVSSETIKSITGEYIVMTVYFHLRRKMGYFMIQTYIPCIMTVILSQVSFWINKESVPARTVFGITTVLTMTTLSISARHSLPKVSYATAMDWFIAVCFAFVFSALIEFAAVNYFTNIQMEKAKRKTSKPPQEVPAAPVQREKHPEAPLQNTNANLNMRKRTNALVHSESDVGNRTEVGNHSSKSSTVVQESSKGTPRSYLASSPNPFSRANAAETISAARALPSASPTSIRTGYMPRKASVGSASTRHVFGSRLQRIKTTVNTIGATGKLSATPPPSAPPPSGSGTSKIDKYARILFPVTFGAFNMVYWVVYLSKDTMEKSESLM
Gamma-aminobutyric acid receptor subunit alpha-4/beta3/delta, sequence (O14764 whole entry): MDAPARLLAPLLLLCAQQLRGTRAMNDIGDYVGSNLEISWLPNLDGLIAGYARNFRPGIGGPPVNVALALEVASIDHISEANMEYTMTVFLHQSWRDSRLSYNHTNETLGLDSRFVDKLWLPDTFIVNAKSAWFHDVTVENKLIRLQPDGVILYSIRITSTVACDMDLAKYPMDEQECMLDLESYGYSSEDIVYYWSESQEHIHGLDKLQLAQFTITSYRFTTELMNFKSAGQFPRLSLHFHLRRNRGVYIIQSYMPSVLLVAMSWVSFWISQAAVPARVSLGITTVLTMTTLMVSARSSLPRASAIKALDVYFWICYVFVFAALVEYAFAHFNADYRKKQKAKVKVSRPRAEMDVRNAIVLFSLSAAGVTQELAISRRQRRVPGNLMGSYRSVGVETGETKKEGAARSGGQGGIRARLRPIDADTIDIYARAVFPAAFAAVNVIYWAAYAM

[18] = biological target: Gamma-aminobutyric acid receptor subunit alpha-4/beta3/delta (Homo sapiens) (UniProt P28472+P48169+O14764); assay: as §1, with “extrasynaptic alpha4beta3delta” for “synaptic alpha1beta2gamma2”, “CHO” for “LTK”, “manual patch” for “Q-patch”; assay type: cell-based; conditions: filed as positive allosteric modulator, dose 0.01-10 µM, time 32.0 sec
[19] = Drug concentration in Sprague-Dawley rat brain at 24.4 micromol/kg, IG measured after 2 hrs by LC-MS/MS analysis; assay type: ADME, tissue-based; conditions: in vivo, po, dose 24.4 µmol/kg
[20] = Drug concentration in Sprague-Dawley rat brain at 24.4 micromol/kg, IG measured after 6 hrs by LC-MS/MS analysis; assay type: ADME, tissue-based; conditions: in vivo, po, dose 24.4 µmol/kg

Compound: C[C@@]1(O)CC[C@H]2[C@H](CC[C@@H]3[C@@H]2CC[C@]2(C)[C@@H](C(=O)Cn4cc(C#N)cn4)CC[C@@H]32)C1 [ZURANOLONE]
- CLint scaled at 1 µM [1]: 51.8 mL/min/kg
- CLint scaled at 1 µM [2]: 10.6 mL/min/kg
- remaining at 1 µM [3]: 40%
- pKa [4]: > 12
- IC50 (Cytochrome P450 1A2): > 30 µM
- IC50 (Cytochrome P450 2B6): > 30 µM
- IC50 (Cytochrome P450 2C9): > 30 µM
- IC50 (Cytochrome P450 2D6): > 30 µM
- IC50 (Cytochrome P450 3A4): > 30 µM
- half-life [5]: 2.45 h
- AUC(0-t) at 24 h [6]: 5.21 µM·h
- Vd [7]: 4.66 L/kg
- MRT last at 24 h [8]: 2.12 h
- half-life [9]: 3.8 h
- Tmax [10]: 1.17 h
- AUC(0-t) at 24 h [11]: 12 µM·h
- Vz [12]: 10.54 L/kg
- MRT last at 24 h [13]: 4.46 h
- bioavailability [14]: 57.7%
- C0 at 24 h [15]: 3440 nM
- Emax [16]: 980%
- EC50 [17]: 0.135 µM
- Emax [18]: 1040%
- Ct [19]: 2220 nmol/kg
- Ct [20]: 193 nmol/kg

Compound: C[C@@]1(O)CC[C@H]2[C@H](CC[C@@H]3[C@@H]2CC[C@]2(C)[C@@H](C(=O)Cn4cnn(-c5cc(F)nc(F)c5)c4=O)CC[C@@H]32)C1
- CLint scaled at 1 µM [1]: 23 mL/min/kg
- CLint scaled at 1 µM [2]: < 6.75 mL/min/kg
- remaining at 1 µM [3]: 68%
- pKa [4]: > 12
- IC50 (Cytochrome P450 1A2): > 30 µM
- IC50 (Cytochrome P450 2B6): > 30 µM
- IC50 (Cytochrome P450 2C9): > 30 µM
- IC50 (Cytochrome P450 2D6): > 30 µM
- IC50 (Cytochrome P450 3A4): > 30 µM
- half-life [5]: 5.2 h
- AUC(0-t) at 24 h [6]: 6.03 µM·h
- Vd [7]: 7.38 L/kg
- MRT last at 24 h [8]: 4.75 h
- half-life [9]: 6.58 h
- Tmax [10]: 2.01 h
- AUC(0-t) at 24 h [11]: 24 µM·h
- Vz [12]: 8.86 L/kg
- MRT last at 24 h [13]: 7.74 h
- bioavailability [14]: 99.6%
- C0 at 24 h [15]: 1870 nM
- Emax [16]: 675%
- EC50 [17]: 0.075 µM
- Emax [18]: 1070%
- Ct [19]: 3404 nmol/kg
- Ct [20]: 2339 nmol/kg
